Measurements from ChEMBL document CHEMBL4507267 (2021).

Key:
[1] = molecular target: NT-3 growth factor receptor (Homo sapiens) (UniProt Q16288); conditions: Compound concentration 1000.0 nM
[2] = molecular target: RAF proto-oncogene serine/threonine-protein kinase (Homo sapiens) (UniProt P04049); conditions: Compound concentration 1000.0 nM
[3] = molecular target: Ribosomal protein S6 kinase alpha-4 (Homo sapiens) (UniProt O75676); conditions: Compound concentration 1000.0 nM
[4] = molecular target: Receptor-interacting serine/threonine-protein kinase 2 (Homo sapiens) (UniProt O43353); conditions: Compound concentration 1000.0 nM
[5] = molecular target: Activin receptor type-2B (Homo sapiens) (UniProt Q13705); conditions: Compound concentration 1000.0 nM
[6] = molecular target: Serine/threonine-protein kinase DCLK2 (Homo sapiens) (UniProt Q8N568); conditions: Compound concentration 1000.0 nM
[7] = molecular target: Beta-2 adrenergic receptor (Homo sapiens) (UniProt P07550); conditions: Compound concentration 10.0 uM
[8] = molecular target: High affinity nerve growth factor receptor (Homo sapiens) (UniProt P04629); conditions: Compound concentration 1000.0 nM
[9] = molecular target: Macrophage colony-stimulating factor 1 receptor (Homo sapiens) (UniProt P07333); conditions: Compound concentration 1000.0 nM
[10] = molecular target: Serine/threonine-protein kinase SBK1 (Homo sapiens) (UniProt Q52WX2); conditions: Compound concentration 1000.0 nM
[11] = molecular target: Mitogen-activated protein kinase 9 (Homo sapiens) (UniProt P45984); conditions: Compound concentration 1000.0 nM
[12] = molecular target: Fibroblast growth factor receptor 2 (Homo sapiens) (UniProt P21802); conditions: Compound concentration 1000.0 nM
[13] = molecular target: Serine/threonine-protein kinase D2 (Homo sapiens) (UniProt Q9BZL6); conditions: Compound concentration 1000.0 nM
[14] = system: Phosphatidylinositol 4,5-bisphosphate 3-kinase catalytic subunit alpha isoform (Homo sapiens), P42336 [E542K]; conditions: Compound concentration 1000.0 nM
[15] = system: Tyrosine-protein kinase ABL1 (Homo sapiens), P00519 [T315I]; conditions: Compound concentration 1000.0 nM
[16] = molecular target: Activin receptor type-2A (Homo sapiens) (UniProt P27037); conditions: Compound concentration 1000.0 nM
[17] = molecular target: Phosphatidylinositol 4,5-bisphosphate 3-kinase catalytic subunit delta isoform (Homo sapiens) (UniProt O00329); conditions: Compound concentration 1000.0 nM
[18] = molecular target: Phosphorylase b kinase regulatory subunit alpha, liver isoform (Homo sapiens) (UniProt P46019); conditions: Compound concentration 1000.0 nM
[19] = molecular target: Ephrin type-B receptor 2 (Homo sapiens) (UniProt P29323); conditions: Compound concentration 1000.0 nM
[20] = molecular target: Serine/threonine-protein kinase Nek11 (Homo sapiens) (UniProt Q8NG66); conditions: Compound concentration 1000.0 nM
[21] = molecular target: Serine/threonine-protein kinase TAO1 (Homo sapiens) (UniProt Q7L7X3); conditions: Compound concentration 1000.0 nM
[22] = molecular target: Serine/threonine-protein kinase RIO3 (Homo sapiens) (UniProt O14730); conditions: Compound concentration 1000.0 nM
[23] = molecular target: Serine/threonine-protein kinase 17B (Homo sapiens) (UniProt O94768); conditions: Compound concentration 1000.0 nM
[24] = system: Phosphatidylinositol 4,5-bisphosphate 3-kinase catalytic subunit alpha isoform (Homo sapiens), P42336 [E545K]; conditions: Compound concentration 1000.0 nM
[25] = molecular target: Calcium/calmodulin-dependent protein kinase type II subunit delta (Homo sapiens) (UniProt Q13557); conditions: Compound concentration 1000.0 nM
[26] = molecular target: Eukaryotic translation initiation factor 2-alpha kinase 1 (Homo sapiens) (UniProt Q9BQI3); conditions: Compound concentration 1000.0 nM
[27] = molecular target: Serine/threonine-protein kinase ULK2 (Homo sapiens) (UniProt Q8IYT8); conditions: Compound concentration 1000.0 nM
[28] = molecular target: Serine/threonine-protein kinase TNNI3K (Homo sapiens) (UniProt Q59H18); conditions: Compound concentration 1000.0 nM
[29] = molecular target: Calcium/calmodulin-dependent protein kinase kinase 2 (Homo sapiens) (UniProt Q96RR4); conditions: Compound concentration 1000.0 nM
[30] = molecular target: Ephrin type-A receptor 4 (Homo sapiens) (UniProt P54764); conditions: Compound concentration 1000.0 nM
[31] = molecular target: SRSF protein kinase 3 (Homo sapiens) (UniProt Q9UPE1); conditions: Compound concentration 1000.0 nM
[32] = system: Receptor-type tyrosine-protein kinase FLT3 (Homo sapiens), P36888 [R834Q]; conditions: Compound concentration 1000.0 nM
[33] = molecular target: Activin receptor type-1-like (Homo sapiens) (UniProt P37023); conditions: Compound concentration 1000.0 nM
[34] = molecular target: Megakaryocyte-associated tyrosine-protein kinase (Homo sapiens) (UniProt P42679); conditions: Compound concentration 1000.0 nM
[35] = molecular target: Phosphatidylinositol 3-kinase catalytic subunit type 3 (Homo sapiens) (UniProt Q8NEB9); conditions: Compound concentration 1000.0 nM
[36] = molecular target: Ephrin type-A receptor 1 (Homo sapiens) (UniProt P21709); conditions: Compound concentration 1000.0 nM
[37] = molecular target: Alpha-1B adrenergic receptor (Homo sapiens) (UniProt P35368); conditions: Compound concentration 10.0 uM
[38] = molecular target: Serine/threonine-protein kinase mTOR (Homo sapiens) (UniProt P42345); conditions: Compound concentration 1000.0 nM
[39] = molecular target: Ribosomal protein S6 kinase alpha-1 (Homo sapiens) (UniProt Q15418); conditions: Compound concentration 1000.0 nM
[40] = system: Epidermal growth factor receptor (Homo sapiens), P00533 [G719S]; conditions: Compound concentration 1000.0 nM
[41] = molecular target: Phosphatidylinositol 4-phosphate 5-kinase type-1 gamma (Homo sapiens) (UniProt O60331); conditions: Compound concentration 1000.0 nM
[42] = molecular target: Sigma non-opioid intracellular receptor 1 (Homo sapiens) (UniProt Q99720); conditions: Compound concentration 10.0 uM
[43] = molecular target: Ephrin type-A receptor 3 (Homo sapiens) (UniProt P29320); conditions: Compound concentration 1000.0 nM
[44] = molecular target: MAP/microtubule affinity-regulating kinase 3 (Homo sapiens) (UniProt P27448); conditions: Compound concentration 1000.0 nM
[45] = molecular target: Serine/threonine-protein kinase NIM1 (Homo sapiens) (UniProt Q8IY84); conditions: Compound concentration 1000.0 nM

Receptor-interacting serine/threonine-protein kinase 2 (Homo sapiens), sequence (O43353 whole entry): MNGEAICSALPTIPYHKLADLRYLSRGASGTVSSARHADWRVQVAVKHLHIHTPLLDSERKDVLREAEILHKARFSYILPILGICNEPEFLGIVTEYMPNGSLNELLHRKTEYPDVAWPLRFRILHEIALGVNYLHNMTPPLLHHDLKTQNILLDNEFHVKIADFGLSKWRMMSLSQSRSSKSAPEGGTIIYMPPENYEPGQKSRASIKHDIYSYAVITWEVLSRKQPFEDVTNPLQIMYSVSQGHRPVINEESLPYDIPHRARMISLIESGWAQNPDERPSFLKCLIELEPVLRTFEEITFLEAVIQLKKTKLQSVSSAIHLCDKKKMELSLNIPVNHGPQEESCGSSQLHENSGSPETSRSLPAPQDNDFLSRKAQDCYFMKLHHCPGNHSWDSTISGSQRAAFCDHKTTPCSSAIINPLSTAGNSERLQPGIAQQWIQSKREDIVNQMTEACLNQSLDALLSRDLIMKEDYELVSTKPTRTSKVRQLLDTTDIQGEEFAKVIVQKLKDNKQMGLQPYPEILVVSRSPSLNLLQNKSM
Mitogen-activated protein kinase 9 (Homo sapiens), sequence (P45984 whole entry, looked up): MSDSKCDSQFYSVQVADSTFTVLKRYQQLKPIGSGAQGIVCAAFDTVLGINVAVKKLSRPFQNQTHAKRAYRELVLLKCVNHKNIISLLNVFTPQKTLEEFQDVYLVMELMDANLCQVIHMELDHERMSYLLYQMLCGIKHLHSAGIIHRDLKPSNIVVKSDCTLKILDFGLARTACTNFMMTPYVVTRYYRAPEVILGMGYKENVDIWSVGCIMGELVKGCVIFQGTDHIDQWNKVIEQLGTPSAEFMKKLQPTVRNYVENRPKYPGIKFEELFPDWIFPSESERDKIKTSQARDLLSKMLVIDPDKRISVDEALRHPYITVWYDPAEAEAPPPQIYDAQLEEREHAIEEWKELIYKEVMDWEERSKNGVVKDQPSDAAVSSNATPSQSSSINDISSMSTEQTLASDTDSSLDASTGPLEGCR
Activin receptor type-1-like (Homo sapiens), sequence (P37023 whole entry): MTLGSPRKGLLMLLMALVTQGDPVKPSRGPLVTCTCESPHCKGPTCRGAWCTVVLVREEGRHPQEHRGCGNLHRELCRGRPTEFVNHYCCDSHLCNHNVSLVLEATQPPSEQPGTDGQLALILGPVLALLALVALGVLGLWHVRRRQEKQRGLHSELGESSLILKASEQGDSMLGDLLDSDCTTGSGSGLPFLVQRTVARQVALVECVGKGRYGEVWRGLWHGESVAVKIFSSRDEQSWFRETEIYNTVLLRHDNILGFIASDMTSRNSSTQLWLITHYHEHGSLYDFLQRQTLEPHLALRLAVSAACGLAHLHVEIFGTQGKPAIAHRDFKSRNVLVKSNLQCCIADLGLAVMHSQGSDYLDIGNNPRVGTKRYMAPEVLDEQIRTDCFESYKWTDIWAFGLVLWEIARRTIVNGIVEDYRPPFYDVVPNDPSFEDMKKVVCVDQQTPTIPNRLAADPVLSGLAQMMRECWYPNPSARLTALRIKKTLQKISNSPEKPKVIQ
Serine/threonine-protein kinase SBK1 (Homo sapiens), sequence (Q52WX2 whole entry): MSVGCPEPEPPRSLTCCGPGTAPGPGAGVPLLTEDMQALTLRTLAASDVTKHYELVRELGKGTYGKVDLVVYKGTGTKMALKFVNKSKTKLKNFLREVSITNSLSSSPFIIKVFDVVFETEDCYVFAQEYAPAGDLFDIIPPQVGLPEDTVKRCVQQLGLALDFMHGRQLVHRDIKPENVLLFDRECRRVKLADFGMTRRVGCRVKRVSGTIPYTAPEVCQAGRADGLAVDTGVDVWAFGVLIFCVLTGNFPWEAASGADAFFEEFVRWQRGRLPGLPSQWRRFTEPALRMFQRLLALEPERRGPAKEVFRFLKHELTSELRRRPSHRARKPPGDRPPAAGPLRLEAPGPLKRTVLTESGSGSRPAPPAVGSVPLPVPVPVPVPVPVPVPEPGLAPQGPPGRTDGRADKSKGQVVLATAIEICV
High affinity nerve growth factor receptor (Homo sapiens), sequence (P04629 33-796 limits assumed): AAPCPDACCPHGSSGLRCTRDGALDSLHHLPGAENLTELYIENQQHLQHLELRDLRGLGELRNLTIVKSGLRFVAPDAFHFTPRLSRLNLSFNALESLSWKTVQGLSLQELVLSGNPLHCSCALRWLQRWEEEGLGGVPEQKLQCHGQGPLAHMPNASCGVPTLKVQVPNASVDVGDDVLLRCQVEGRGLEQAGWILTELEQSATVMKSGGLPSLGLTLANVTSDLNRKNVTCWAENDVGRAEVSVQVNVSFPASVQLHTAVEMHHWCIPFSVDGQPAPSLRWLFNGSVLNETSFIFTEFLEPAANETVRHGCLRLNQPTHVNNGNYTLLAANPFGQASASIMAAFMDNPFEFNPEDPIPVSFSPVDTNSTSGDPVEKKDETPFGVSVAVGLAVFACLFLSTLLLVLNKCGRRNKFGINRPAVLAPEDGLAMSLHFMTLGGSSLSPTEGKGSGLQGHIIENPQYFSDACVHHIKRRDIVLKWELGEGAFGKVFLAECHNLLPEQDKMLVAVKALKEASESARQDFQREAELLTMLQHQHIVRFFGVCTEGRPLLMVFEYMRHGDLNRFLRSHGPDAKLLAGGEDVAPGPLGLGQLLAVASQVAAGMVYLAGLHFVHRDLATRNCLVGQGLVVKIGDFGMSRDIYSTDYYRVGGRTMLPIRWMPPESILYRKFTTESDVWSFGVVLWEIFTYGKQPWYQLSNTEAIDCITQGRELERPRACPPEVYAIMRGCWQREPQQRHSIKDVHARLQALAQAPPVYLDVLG
NT-3 growth factor receptor (Homo sapiens), sequence (Q16288 32-839 limits assumed): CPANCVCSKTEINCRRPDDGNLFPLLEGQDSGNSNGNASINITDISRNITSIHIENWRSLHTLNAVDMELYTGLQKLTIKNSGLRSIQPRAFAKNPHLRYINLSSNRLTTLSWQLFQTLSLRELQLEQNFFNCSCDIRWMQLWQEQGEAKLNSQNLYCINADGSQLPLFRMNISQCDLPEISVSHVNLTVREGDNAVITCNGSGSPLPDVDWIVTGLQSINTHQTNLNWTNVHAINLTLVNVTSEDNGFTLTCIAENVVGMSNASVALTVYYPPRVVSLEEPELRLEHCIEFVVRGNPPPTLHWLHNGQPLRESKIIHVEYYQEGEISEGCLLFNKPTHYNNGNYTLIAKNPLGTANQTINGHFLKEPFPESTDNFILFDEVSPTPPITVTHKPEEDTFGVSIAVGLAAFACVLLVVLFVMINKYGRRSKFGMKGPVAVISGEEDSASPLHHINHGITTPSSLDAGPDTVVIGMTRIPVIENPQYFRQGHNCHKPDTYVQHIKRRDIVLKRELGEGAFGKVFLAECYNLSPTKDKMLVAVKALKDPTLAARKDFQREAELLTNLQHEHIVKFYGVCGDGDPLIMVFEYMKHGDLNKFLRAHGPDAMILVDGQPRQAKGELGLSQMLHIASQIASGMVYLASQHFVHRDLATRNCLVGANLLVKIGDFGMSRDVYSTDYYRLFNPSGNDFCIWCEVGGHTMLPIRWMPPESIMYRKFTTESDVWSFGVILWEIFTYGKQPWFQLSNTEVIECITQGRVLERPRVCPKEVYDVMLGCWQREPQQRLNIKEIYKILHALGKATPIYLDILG
Sigma non-opioid intracellular receptor 1 (Homo sapiens), sequence (Q99720 whole entry): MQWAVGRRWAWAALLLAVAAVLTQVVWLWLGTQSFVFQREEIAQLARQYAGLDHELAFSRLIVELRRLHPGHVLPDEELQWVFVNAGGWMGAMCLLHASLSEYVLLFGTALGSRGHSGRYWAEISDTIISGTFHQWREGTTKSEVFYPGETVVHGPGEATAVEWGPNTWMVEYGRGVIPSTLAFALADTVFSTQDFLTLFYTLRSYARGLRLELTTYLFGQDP
Ribosomal protein S6 kinase alpha-4 (Homo sapiens), sequence (O75676 whole entry, looked up): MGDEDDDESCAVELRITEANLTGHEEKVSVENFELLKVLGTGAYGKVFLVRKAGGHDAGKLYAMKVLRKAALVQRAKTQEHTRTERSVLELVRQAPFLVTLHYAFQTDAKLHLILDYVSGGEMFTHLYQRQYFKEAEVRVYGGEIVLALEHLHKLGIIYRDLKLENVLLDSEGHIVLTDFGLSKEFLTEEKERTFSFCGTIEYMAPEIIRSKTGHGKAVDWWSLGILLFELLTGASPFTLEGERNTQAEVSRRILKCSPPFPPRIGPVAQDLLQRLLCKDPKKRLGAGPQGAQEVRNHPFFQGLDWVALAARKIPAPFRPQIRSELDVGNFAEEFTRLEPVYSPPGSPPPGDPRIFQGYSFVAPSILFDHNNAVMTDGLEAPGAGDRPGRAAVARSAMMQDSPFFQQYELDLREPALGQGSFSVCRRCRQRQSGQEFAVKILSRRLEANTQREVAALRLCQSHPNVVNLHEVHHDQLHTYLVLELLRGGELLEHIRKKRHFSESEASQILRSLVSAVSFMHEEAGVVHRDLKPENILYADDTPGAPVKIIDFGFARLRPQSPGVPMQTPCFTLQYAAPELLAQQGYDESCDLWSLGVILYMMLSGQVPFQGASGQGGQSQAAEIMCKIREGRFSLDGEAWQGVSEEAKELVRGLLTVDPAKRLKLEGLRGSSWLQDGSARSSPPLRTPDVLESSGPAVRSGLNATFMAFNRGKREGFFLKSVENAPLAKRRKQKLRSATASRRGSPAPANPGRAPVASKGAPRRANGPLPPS
Serine/threonine-protein kinase 17B (Homo sapiens), sequence (O94768 whole entry, canonical isoform): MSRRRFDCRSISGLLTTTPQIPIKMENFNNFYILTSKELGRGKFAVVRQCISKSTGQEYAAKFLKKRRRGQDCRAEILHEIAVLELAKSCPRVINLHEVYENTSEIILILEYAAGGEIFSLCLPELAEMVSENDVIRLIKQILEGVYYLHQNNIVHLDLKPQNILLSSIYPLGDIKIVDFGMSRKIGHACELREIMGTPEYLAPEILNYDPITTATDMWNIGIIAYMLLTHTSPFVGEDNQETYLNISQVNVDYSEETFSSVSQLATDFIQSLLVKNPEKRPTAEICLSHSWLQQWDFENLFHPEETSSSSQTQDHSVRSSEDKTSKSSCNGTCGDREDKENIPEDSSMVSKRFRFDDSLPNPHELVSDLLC

Cc1c(NC(=O)c2cc(C(N)=O)nc3cc(F)ccc23)c(C(F)(F)F)nn1Cc1ccc(C#N)cc1 [BAY-876]
inactive: residual activity [1] 69% | residual activity [2] 86% | residual activity [3] 85% | residual activity [4] 100% | residual activity [5] 93% | residual activity [6] 82% | inhibition [7] 21.7% | residual activity [8] 83% | residual activity [9] 83% | residual activity [10] 75% | residual activity [11] 77% | residual activity [12] 88% | residual activity [13] 100% | residual activity [14] 84% | residual activity [15] 92% | residual activity [16] 97% | residual activity [17] 66% | residual activity [18] 94% | residual activity [19] 100% | residual activity [20] 100% | residual activity [21] 93% | residual activity [22] 75% | residual activity [23] 72% | residual activity [24] 73% | residual activity [25] 90% | residual activity [26] 100% | residual activity [27] 81% | residual activity [28] 100% | residual activity [29] 92% | residual activity [30] 99% | residual activity [31] 100% | residual activity [32] 83% | residual activity [33] 100% | residual activity [34] 66% | residual activity [35] 99% | residual activity [36] 74% | inhibition [37] -8.82% | residual activity [38] 93% | residual activity [39] 78% | residual activity [40] 86% | residual activity [41] 94% | inhibition [42] -2.5% | residual activity [43] 90% | residual activity [44] 100% | residual activity [45] 91%

Cc1c(NC(=O)c2cc(C(N)=O)nc3cc(F)ccc23)c(C(F)(F)F)nn1Cc1ccc(C(C)(C)C)cc1 [BAY-588]
inactive: residual activity [1] 100% | residual activity [2] 88% | residual activity [3] 100% | residual activity [4] 93% | residual activity [5] 100% | residual activity [6] 83% | inhibition [7] 24.1% | residual activity [8] 89% | residual activity [9] 100% | residual activity [10] 100% | residual activity [11] 100% | residual activity [12] 100% | residual activity [13] 100% | residual activity [15] 85% | residual activity [16] 100% | residual activity [17] 100% | residual activity [18] 83% | residual activity [19] 83% | residual activity [20] 100% | residual activity [21] 100% | residual activity [22] 97% | residual activity [23] 100% | residual activity [24] 100% | residual activity [25] 84% | residual activity [26] 100% | residual activity [27] 100% | residual activity [28] 81% | residual activity [29] 78% | residual activity [30] 100% | residual activity [31] 100% | residual activity [32] 100% | residual activity [33] 94% | residual activity [34] 66% | residual activity [35] 100% | residual activity [36] 96% | inhibition [37] -5.98% | residual activity [38] 86% | residual activity [39] 100% | residual activity [40] 78% | residual activity [41] 78% | inhibition [42] 6.28% | residual activity [43] 98% | residual activity [44] 100% | residual activity [45] 100%
active: residual activity [14] 43%
